The subject of test [1] is absorption of sodium from the intestinal lumen. Kind of test: Inhibition of intestinal sodium absorption in rats. The format is in vivo, Sprague Dawley rats. The conditions noted are these: 13-hours post-dose; for response vs control in vivo at 0.03 mg/kg / response vs control in vivo at 0.1 mg/kg / response vs control in vivo at 0.3 mg/kg: Rattus norvegicus, Sprague Dawley rats, read-out: Urinary Na (% of Vehicle, out/in); for response vs control in vivo at 0.03 mg/kg: oral gavage 0.03 mg/kg; for response vs control in vivo at 0.1 mg/kg: oral gavage 0.1 mg/kg; for response vs control in vivo at 0.3 mg/kg: oral gavage 0.3 mg/kg; for FFS (1-5): rats, group median fecal form score, 1 normal pellet to 5 liquid fecal streams. The procedure: Urinary sodium excretion and fecal form were measured to assess the ability of selected example compounds to inhibit the absorption of sodium from the intestinal lumen. Eight-week old, male, Sprague Dawley rats were purchased from Envigo (Livermore, Calif.), were housed 2 per cage and acclimated for at least 48 hours before study initiation. Animals were fed. Harlan Teklad Global TD.160470 rodent chow (Madison, Wis.), standard laboratory rodent chow Harlan Teklad Global 2018 with the addition of 0.4% inorganic phosphorous. Animals had ad libitum access to food and water for the duration of the study and were maintained in a temperature and humidity controlled room on a standard light/dark cycle of 6 AM to 6 PM. On the day of study initiation, rats (n=5/group) were dosed by oral gavage with test compound or vehicle (3 mM HCl, 0.01% Tween80) at a dose volume of […]. Immediately after dose administration animals were placed in individual metabolic cages. At 13-hours post-dose, urine samples were collected and fecal form was assessed. In addition, the weight of food consumed over the 13-hour period was measured and recorded. Fecal forms were scored according to a common scale associated with increasing fecal water to the wettest observation in the cage's collection funnel (1, normal pellet; 2, pellet adhering to sides of collection funnel due to moisture; 3, loss of normal pellet shape; 4, complete loss of shape with a blotting pattern; 5, liquid fecal streams evident). Fecal form score (FFS) was calculated for each group as the median of each individual rat's FFS within the group and reported in Table 7. Fecal samples were dried using a lyophilizer for at least 3 days, following which dry weight was recorded and fecal fluid content was calculated based on the difference between the wet and dry stool weights. Fecal fluid content was calculated as a change from the vehicle group mean. For urine samples, the volumes were determined gravimetrically. Urine samples were analyzed on an ion chromatography system (Thermo Fisher ICS-3000 or ICS-5000+) coupled with conductivity detectors. Chromatographic separation of cations was performed using an IonPac CS12A (Thermo Fisher) 2×250 mm analytical column with an isocratic elution using 25 mM methanesulfonic acid. Concentrations were interpolated from a standard curve (prepared in 10 mM HCl) for sodium based on retention time and peak area. Thirteen-s-hour urinary sodium excretion (mg/13-hours) was calculated by multiplying urinary sodium concentration by 13-hour urine volume. The urinary sodium excretion of compound treatment was normalized to dietary sodium intake and expressed as a percentage of the vehicle mean.

Test [2] deals with human duodenum monolayer culture. The experiment in a line: Increased trans-epithelial resistance (TEER) in human organoid monolayer cell cultures. Conditions: 1 μM apical, baseline corrected. In kind it is cell-based. The procedure: Basal media (B consisted of advanced DMEM/F12 containing 10 mM HEPES (Invitrogen, 15630-080), 1:100 Glutamax (Invitrogen, 35050-061), and 1:100 penicillin/streptomycin (Invitrogen, 15140-122). Supplemented basal media (SBM) contained 1:100 N2 (Invitrogen, 17502-048), 1:50 B27 (Invitrogen, 12587-010), 1 mM N-acetylcysteine (Sigma, A9165), and 10 nM [Leu15]-gastrin I (Sigma, G9145). Growth factors used included 50 ng per mL mouse EGF (Peprotech, 315-09), 100 ng per mL mouse noggin (Peprotech, 250-38), 500 ng per mL human R-spondin 1 (R&D, 4645-RS), 100 ng per mL mouse Wnt-3a (R&D, 1324-WN), 20 μM Y-27632 (Tocris, 1254), 10 mM nicotinamide (Sigma, N0636), 500 nM A83-01 (Tocris, 2939), 10 μM SB202190 (Tocris, 1264). Transwells were 0.4 μm pore polyester membrane 24-well Transwell inserts (Corning). Cultures were incubated at 37° C. in 5% CO2.
Human duodenum organoids were cultured in WENRNAS (Wnt, EGF, noggin, R-spondin1, Nicotinamide, A83-01, SB202190) and typically grown for 7-12 days before being used to plate monolayer cultures. On day 0, organoid cultures embedded in Matrigel were treated with TrypLE Express to break organoids into small pieces and/or single cells. The cells were resuspended to 0.5×10^6 cells/mL in SBM containing WENRAY (Wnt, EGF, noggin, R-spondin1, A83-01, Y-27632). Following this step, 200 μL of cell suspension was plated into the apical side of a 24-well Transwell (100,000 cells/well) and 600 μL of SBM with WENRAY was added to the basolateral side. Duodenum cells were differentiated with ENA (EGF, noggin, A83-01) on day 3. The color of apical compartment turns from pink or orange to yellow due to the increase in NHE3 expression after differentiation.
Each human duodenum monolayer culture well was washed twice with fresh SBM on the apical side on day 6 or day 7 before dosing. All compound stocks were 10 mM dissolved DMSO. Each compound stock was individually mixed with fresh SBM to reach final compound concentration 1 μM and dosed only on the apical side of the monolayer (total volume 200 μl). DMSO at the equivalent concentration was used as the vehicle control. Duplicate wells were dosed for each compound. Transepithelial electrical resistance (TEER) was used as a quantitative technique to measure of tight junction permeability. TEER values were recorded (MERS00002, Millipore) before dosing and 30 mins and 1 hr after dosing for all wells. Each of the duplicate TEER values following treatment were corrected for the individual well baseline TEER. Baseline corrected TEER for each example compound was compared to the average of the DMSO wells and expressed as a percent TEER of vehicle control.

Setting [3] is: 1 hr after dosing, read-out: TEER at 60 minutes (% of Vehicle).
The mark [4] stands for this setting: 0.5 h, 30 mins after dosing, read-out: TEER at 30 minutes (% of Vehicle).

Where two headings read alike, the source gives them in different places.

For `N#Cc1cc(Cl)cc2c1C[C@H](N1CCNCC1)[C@H]2Oc1ccc(S(=O)(=O)N2CCC(NC(=O)CCCNC(=O)NCCCCNC(=O)NCCCC(=O)NC3CCN(S(=O)(=O)c4ccc(O[C@H]5c6cc(Cl)cc(C#N)c6C[C@@H]5N5CCNCC5)cc4)CC3)CC2)cc1` [Example 120, N^1,N^18-Bis(1-([4-([(1S,2S)-6-chloro-4-cyano-2-(piperazin-1-yl)-2,3-dihydro-1H-inden-1-yl]oxy)phenyl]sulfonyl)piperidin-4-yl)-6,13-dioxo-5,7,12,14-tetraazaoctadecanediamide], in test [1], the response vs control in vivo at 0.03 mg/kg was greater than 70%, the response vs control in vivo at 0.1 mg/kg lay within 40 to 70% and the response vs control in vivo at 0.3 mg/kg is less than 40%. The “FFS (1-5)” value in test [1] (0.03 mg/kg) was found to be 2. Also, the “FFS (1-5)” value in test [1] (0.1 mg/kg) is 3. For the same molecule, the “FFS (1-5)” value in test [1] (0.3 mg/kg) is 4.

For `O=C(NCCCCNC(=O)NCCOCCOCCNS(=O)(=O)c1ccc(O[C@H]2c3cc(Cl)cc(Cl)c3C[C@@H]2N2CCNCC2)cc1)NCCOCCOCCNS(=O)(=O)c1ccc(O[C@H]2c3cc(Cl)cc(Cl)c3C[C@@H]2N2CCNCC2)cc1` [Example 31, 3-[2-(2-[2-[(4-[[(1S,2S)-4,6-Dichloro-2-(piperazin-1-yl)-2,3-dihydro-1H-inden-1-yl]oxy]benzene)sulfonamido]ethoxy]ethoxy)ethyl]-1-[4-([[2-(2-[2-[(4-[[(1S,2S)-4,6-dichloro-2-(piperazin-1-yl)-2,3-dihydro-1H-inden-1-yl]oxy]benzene)sulfonamido]ethoxy]ethoxy)ethyl]carbamoyl]amino)butyl]urea; bis(trifluoroacetic acid)], the activity at 1 µM is greater than 130% in test [2] (setting [3]) and 100 to 130% in test [2] (setting [4]).

In the case of `Cc1cc(S(=O)(=O)N[C@H]2CCN(CCOCCNC(=O)NCCCCNC(=O)NCCOCCN3CC[C@H](NS(=O)(=O)c4ccc(O[C@H]5c6cc(Cl)cc(Cl)c6C[C@@H]5N(C)C)c(C)c4)C3=O)C2=O)ccc1O[C@H]1c2cc(Cl)cc(Cl)c2C[C@@H]1N(C)C` [Example 91, 1-(2-[2-[(3S)-3-[(4-[[(1S,2S)-4,6-Dichloro-2-(dimethylamino)-2,3-dihydro-1H-inden-1-yl]oxy]-3-methylbenzene)sulfonamido]-2-oxopyrrolidin-1-yl]ethoxy]ethyl)-3-(4-[[(2-[2-[(3S)-3-[(4-[[(1S,2S)-4,6-dichloro-2-(dimethylamino)-2,3-dihydro-1H-inden-1-yl]oxy]-3-methylbenzene)sulfonamido]-2-oxopyrrolidin-1-yl]ethoxy]ethyl)carbamoyl]amino]butyl)urea], the activity at 1 µM in test [2] (setting [3]) and in test [2] (setting [4]) was 100 to 130% in each case.

With `N#Cc1cc(Cl)cc2c1C[C@H](N1CCNCC1)[C@H]2Oc1ccc(S(=O)(=O)N[C@H]2CCN(C(=O)CCCNC(=O)NCCCCNC(=O)NCCCC(=O)N3CC[C@H](NS(=O)(=O)c4ccc(O[C@H]5c6cc(Cl)cc(C#N)c6C[C@@H]5N5CCNCC5)cc4)C3)C2)cc1` [Example 143, 4-([(1S,2S)-6-Chloro-4-cyano-2-(piperazin-1-yl)-2,3-dihydro-1H-inden-1-yl]oxy)-N—[(S)-1-(18-[(S)-3-([4-([(1S,2S)-6-chloro-4-cyano-2-(piperazin-1-yl)-2,3-dihydro-1H-inden-1-yl]oxy)phenyl]sulfonamido)pyrrolidin-1-yl]-6,13,18-trioxo-5,7,12,14-tetraazaoctadecanoyl)pyrrolidin-3-yl]benzenesulfonamide], the response vs control in vivo at 0.03 mg/kg in test [1] lay within 40 to 70%. Also, the response vs control in vivo at 0.1 mg/kg in test [1] was less than 40%. Also, the response vs control in vivo at 0.3 mg/kg in test [1] was less than 40%. The “FFS (1-5)” value in test [1] (0.03 mg/kg) came out at 3; in test [1] (0.1 mg/kg), 3; in test [1] (0.3 mg/kg), 4.

For `CN(C)[C@H]1CCCN([C@H]2Cc3c(C#N)cc(Cl)cc3[C@@H]2Oc2ccc(S(=O)(=O)NCCOCCOCCNC(=O)NCCCCNC(=O)NCCOCCOCCNS(=O)(=O)c3ccc(O[C@H]4c5cc(Cl)cc(C#N)c5C[C@@H]4N4CCC[C@H](N(C)C)C4)cc3)cc2)C1` [Example 122, 4-([(1S,2S)-6-Chloro-4-cyano-2-[(S)-3-(dimethylamino)piperidin-1-yl]-2,3-dihydro-1H-inden-1-yl]oxy)-N-[26-([4-([(1S,2S)-6-chloro-4-cyano-2-[(S)-3-(dimethylamino)piperidin-1-yl]-2,3-dihydro-1H-inden-1-yl]oxy)phenyl]sulfonamido)-10,17-dioxo-3,6,21,24-tetraoxa-9,11,16,18-tetraazahexacosyl]benzenesulfonamide], in test [1], the response vs control in vivo at 0.03 mg/kg was greater than 70%, the response vs control in vivo at 0.1 mg/kg was greater than 70% and the response vs control in vivo at 0.3 mg/kg was in the range of 40 to 70%. Besides, the “FFS (1-5)” value in test [1] (0.03 mg/kg) is listed as 2. Also, the “FFS (1-5)” value in test [1] (0.1 mg/kg) turned out to be 2. Also, the “FFS (1-5)” value in test [1] (0.3 mg/kg) stood at 3.

`C[C@@H]1CN([C@H]2Cc3c(C#N)cc(Cl)cc3[C@@H]2Oc2ccc(S(=O)(=O)N[C@@H]3CCN(CCOCCNC(=O)NCCCCNC(=O)NCCOCCN4CC[C@@H](NS(=O)(=O)c5ccc(O[C@H]6c7cc(Cl)cc(C#N)c7C[C@@H]6N6CCN[C@H](C)C6)cc5)C4)C3)cc2)CCN1` [Example 133, 4-([(1S,2S)-6-Chloro-4-cyano-2-[(R)-3-methylpiperazin-1-yl]-2,3-dihydro-1H-inden-1-yl]oxy)-N—[(R)-1-(20-[(R)-3-([4-([(1S,2S)-6-chloro-4-cyano-2-[(R)-3-methylpiperazin-1-yl]-2,3-dihydro-1H-inden-1-yl]oxy)phenyl]sulfonamido)pyrrolidin-1-yl]-7,14-dioxo-3,18-dioxa-6,8,13,15-tetraazaicosyl)pyrrolidin-3-yl]benzenesulfonamide; bis(trifluoroacetic acid)]: in test [1], the response vs control in vivo at 0.03 mg/kg was greater than 70%. Moreover, the response vs control in vivo at 0.1 mg/kg in test [1] was less than 40%. Also, the response vs control in vivo at 0.3 mg/kg in test [1] is less than 40%. In addition, the “FFS (1-5)” value in test [1] (0.03 mg/kg), in test [1] (0.1 mg/kg) and in test [1] (0.3 mg/kg) was 3 in each case.

For the origin of these results see patent US11242337B2, “Compounds useful for treating gastrointestinal tract disorders” (Ardelyx, Inc., priority 2017, dated 2022).
